Tested on: immune cells in the CT26 tumors
Experiment: Flow cytometry of intratumoral immune cells in CT26 tumors
Format: in vivo, mice
Method: FIG. 7A to FIG. 7B. Radiation and ER-886046 worked synergistically to modify the intratumoral immunity. Panel shown in FIG. 7A) Quantification of myeloid cells (CD11b^+) and cytotoxic T cells (CD8^+) in the CT26 tumors that received 9 Gy alone, 9 Gy+ER-886046, or vehicle alone. Panel shown in FIG. 7B) Quantification of myeloid-derived suppressor cells (MDSC cells, CD11b^+Gr1^+) in the tumors. Radiation was given once to the tumors on the day of randomization, while ER-886046 was administered po daily administrated at 150 mg/kg to the animals for 7 consecutive days after randomization. The tumors were analyzed by flow cytometry one day after the last dose of ER-886046. **, p<0.01; ns, not significant; student t-test.
Flow cytometry; CT26 tumors with or without treatments received were surgically resected and minced by physical pressure, followed by digestion with collagenase I at 1 mg/ml at 37° C. for 1 h. The single cell mixtures from the digestion were labelled by incubation with fluorescent antibodies against immune cell antigens and analysed by flow cytometry. Cell population calculation was performed by software FlowJo 7.6.

SMILES: C[C@H](NC(=O)c1c(C(F)F)nn(C)c1Oc1cccc(C(F)(F)F)c1)c1ccc(C(=O)O)cc1 [ER-886046]
- ratio of Gr1+ cells among CD45+CD11b+ cells (MDSC) (ER-886046 150 mg/kg po daily 7 days + 9 Gy radiation, vs vehicle or radiation alone): reduced the ratio of Gr1^+ cells among CD45^+CD11b^+ cells
- tumor infiltration frequency of CD8+ T cells and CD11b+ myeloid cells (ER-886046 150 mg/kg po daily 7 days added to 9 Gy radiation, vs radiation alone): no additional significant effect
